Measurements: US6750348B1, “Chemokine receptor binding heterocyclic compounds” (AnorMED, Inc., priority 1999, dated 2004)

Key:
Type in all cases: cell-based
[1] = system: RANTES induced Ca flux in U87.CCR5 cells; assay: Inhibition of RANTES induced Ca flux in U87.CCR5 cells (FLIPR); conditions: U-87-CCR5, at 20 μg/mL, read-out: inhibited RANTES induced Ca flux
Experimental: Loading dye: Fluo-3, AM (Molecular Probes F-1241) is dissolved in anhydrous DMSO and stored frozen in aliquots. To increase the solubility of the dye in the loading medium, 10% (w/v) pluronic acid (Molecular Probes F-127) is added to the Fluo-3 stock solution immediately before use.
HBSS+20 mM Hepes buffer+0.2% BSA, pH 7.4. HBSS 10× [(w/o phenol red and sodium bicarbonate (Gibco 14 065-049)]; Hepes buffer 1M (Gibco 15 630-056), BSA (Sigma A3675). The flux buffer is vacuum-filtered and stored refrigerated for a maximum of 5 days. Before use in the experiment, the buffer is warmed at 37° C. in a waterbath.
The test compounds were diluted in flux buffer and added to 4 wells of a black microplate (4 parallel measurements per compound).
The chemokines are diluted in flux buffer to concentrations that are 4-fold higher than the desired concentrations required for stimulation of the cells (i.e. 2.5 nM for SDF-1α and 0.6 nM for RANTES). The chemokines were added to untreated 96-well Sero well compound plates (International Medical, Sterilin code 611F96). In the negative control well's (baseline monitoring), flux buffer is added instead of chemokine. As a positive control to check for dye loading efficiency, 20 μM digitonin (final concentration) was also included. The agonist plate was incubated in the FLIPR (37° C.) for 15-30 min.
The FLIPR settings (camera exposure time and laser power) are adjusted to obtain initial fluorescence values between 8,000 and 10,000 units. After monitoring a 20 second-baseline, the agonist (chemokine) (50 μL) is added by automatic pipettor with black pipette tips. Fluorescence is measured simultaneously in all wells of the microplate every 2 seconds (first 2 min) and thereafter every 6 seconds (additional 2 min). The average ca-flux measured in each set of 4 identical wells (one test compound) was calculated by the FLIPR software.
U87.CCR5 cells were seeded into the black microplates (Costar 3603) on the day before the experiment. The culture medium was removed from the cells and 100 μL of loading medium (DMEM+10% FBS+4 μM Fluo-3, AM) was added to each well and the plate was incubate at 37° C. for 45 min. The loading medium was then removed an the cells were washed twice with flux buffer using the CELL WASH microplate washer (Labsystems) followed by incubation in flux buffer for 10 min. at room temperature (the washing procedure was repeated twice). Finally, the wash buffer was removed from the microplate wells and 150 μL of the test compound, diluted in flux buffer to the desired concentration. The microplate was then incubated in the FLIPR drawer for 10 min. prior to testing. Measurements were performed as described above.
The compounds of the current invention were tested for inhibition of RANTES induced Ca flux in U87.CCR5 cells.

HIV-1 BaL (CCR5 using) = assay: Inhibition of HIV-1 (BaL) replication in PHA-stimulated PBMC's (MTT); conditions: Human immunodeficiency virus 1, BAL, MTT assay
Experimental: Compounds were tested for their ability to inhibit HIV-1 replication in MT-4 cells or PBMC's (peripheral blood mononucleocytes) using published procedures (for example, see: Labrosse et al. J. Virol. 1998, 6381-6388; Simmons et al. J. Virol. 1998, 8453-8457; Donzella et al. Nature Medicine 1998, 72-77; Schols et al. J. Exp. Med. 1997, 1383-1388; De Clercq et al. Antiviral Res. 1997, 147-156; and Bridger et al. U.S. patent application Ser. No. 09/111,895). In addition to the above references, experimental methods for performing anti-viral assays can also be found in: Bridger et al. J. Med. Chem. 1995, 38, 366-378; Bridger et al. J. Med. Chem. 1996, 39, 109-119; Bridger et al. U.S. Pat. No. 5,698,546; Bridger et al. U.S. Pat. No. 5,583,131; Bridger et al. U.S. Pat. No. 5,817,807; De Clercq et al. Antimicrob. Agents and Chemother. 1994, 38, 668-674.
The HIV-1 strain BaL is M-tropic (macrophage tropic) strain that exclusively uses CCR5 as a co-receptor for entry into cells. PBMC's (from healthy donors) express all chemokine receptors including CXCR4 and CCR5.

HIV-1 NL4.3 or IIIB = assay: Inhibition of HIV-1 (NL4.3 or IIIB) replication in MT-4 cells (MTT); conditions: Human immunodeficiency virus 1, IIIB, MT4, read-out: EC50, inhibition of HIV-1 NL4.3 or IIIB replication
In short: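 CXCR4-tropic virus infected MT-4 cells at MOI 0.01 (100× CCID50) across a range of compound concentrations, with cytotoxicity run in parallel. Viable cells counted by MTT after 5 days. EC50 is the concentration protecting 50% of infected cells from viral cytopathicity.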

[2] = system: SDF-1α induced Ca flux in SUP-T1 cells; assay: Inhibition of SDF-1α induced Ca flux in SUP-T1 cells (FLIPR); conditions: Homo sapiens, at 20 μg/mL, read-out: inhibited SDF-1α induced Ca flux

With `N[C@@H]1CCC[C@H]1N(Cc1ccc(CNCc2ccccn2)cc1)C1CCCc2cccnc21` (relative stereo) [Example 71, N-(2-pyridinylmethyl)-N′-(trans-2-aminocyclopentyl)-N′-(5,6,7,8-tetrahydro-8-quinolinyl)-1,4-benzenedimethanamine] the inhibition at 20 µg/mL [1] was greater than 20%, the EC50 (HIV-1 BaL (CCR5 using)) was less than 20 µg/mL and the EC50 (HIV-1 NL4.3 or IIIB) was less than 20 µg/mL.

`c1ccc(CNCc2ccc(CNc3cccc4ccccc34)cc2)nc1` [Example 5, N-(2-pyridinylmethyl)-N′-(1-naphthalenyl)-1,4-benzenedimethanamine] showed an inhibition at 20 µg/mL [1] greater than 20% and an EC50 (HIV-1 BaL (CCR5 using)) of less than 20 µg/mL.

Work on `c1ccc(-c2ccc3c(n2)C(NCc2ccc(CNCc4ccccn4)cc2)CCC3)cc1` (stereo not drawn) [Example 11, N-(2-pyridinylmethyl)-N′-(2-phenyl-5,6,7,8-tetrahydro-8-quinolinyl)-1,4-benzenedimethanamine] yielded an inhibition at 20 µg/mL [1] greater than 20%, an EC50 (HIV-1 BaL (CCR5 using)) of less than 20 µg/mL and an EC50 (HIV-1 NL4.3 or IIIB) of less than 20 µg/mL.

In the case of `c1ccc(CNCc2ccc(CN(Cc3ccco3)C3CCCc4cccnc43)cc2)nc1` (stereo not drawn) [Example 29, N-(2-pyridinylmethyl)-N′-[2-furanylmethyl]-N′-(5,6,7,8-tetrahydro-8-quinolinyl)-1,4-benzenedimethanamine], the inhibition at 20 µg/mL [2] is reported as greater than 20%, the EC50 (HIV-1 BaL (CCR5 using)) is reported as less than 20 µg/mL and the EC50 (HIV-1 NL4.3 or IIIB) is reported as less than 20 µg/mL.

Compound `c1ccc(CNCCN(Cc2ccc(CNCc3ccccn3)cc2)C2CCCc3cccnc32)cc1` (stereo not drawn) [Example 30, N-(2-pyridinylmethyl)-N′-[2-[(phenylmethyl)amino]ethyl]-N′-(5,6,7,8-tetrahydro-8-quinolinyl)-1,4-benzenedimethanamine] has an inhibition at 20 µg/mL [1] greater than 20%, an inhibition at 20 µg/mL [2] greater than 20% and an EC50 (HIV-1 BaL (CCR5 using)) of less than 20 µg/mL. It also gave an EC50 (HIV-1 NL4.3 or IIIB) of less than 20 µg/mL.

`CC1c2ccccc2CCC1NCc1ccc(CNCc2ccccn2)cc1` (stereo not drawn) [Example 37, N-(2-pyridinylmethyl)-N′-(1-methyl-1,2,3,4-tetrahydro-2-naphthalenyl)-1,4-benzenedimethanamine] was tested, and the inhibition at 20 µg/mL [2] was greater than 20%, the EC50 (HIV-1 BaL (CCR5 using)) was less than 20 µg/mL and the EC50 (HIV-1 NL4.3 or IIIB) was less than 20 µg/mL.

Work on `Fc1cccc2c1CC(NCc1ccc(CNCc3ccccn3)cc1)CC2` (stereo not drawn) [Example 43, N-(2-pyridinylmethyl)-N′-(8-Fluoro-1,2,3,4-tetrahydro2-naphthalenyl)-1,4-benzenedimethanamine] yielded an inhibition at 20 µg/mL [2] greater than 20%, an EC50 (HIV-1 BaL (CCR5 using)) of less than 20 µg/mL and an EC50 (HIV-1 NL4.3 or IIIB) of less than 20 µg/mL.

`c1ccc(CCN(Cc2ccc(CNCc3ccccn3)cc2)C2CCCc3cccnc32)nc1` (stereo not drawn) [Example 66, N-(2-pyridinylmethyl)-N′-[2-(2-pyridinyl)ethyl]-N′-(5,6,7,8-tetrahydro-8-quinolinyl)-1,4-benzenedimethanamine] showed an inhibition at 20 µg/mL [2] greater than 20%, an EC50 (HIV-1 BaL (CCR5 using)) of less than 20 µg/mL and an EC50 (HIV-1 NL4.3 or IIIB) of less than 20 µg/mL.

`c1ccc(CNCc2ccc(CN(Cc3ccccn3)CC3CCCc4cccnc43)cc2)nc1` (stereo not drawn) [Example 88, N,N′-bis(2-pyridinylmethyl)-N′-[(5,6,7,8-tetrahydro-8-quinolinyl)methyl]-1,4-benzenedimethanamine] gave an inhibition at 20 µg/mL [2] greater than 20%, an EC50 (HIV-1 BaL (CCR5 using)) of less than 20 µg/mL and an EC50 (HIV-1 NL4.3 or IIIB) of less than 20 µg/mL.
